Results as given in patent publication US20250243189A1, “HERBICIDAL IMIDAZOLE-CONTAINING COMPOUNDS” (SYNGENTA CROP PROTECTION AG, priority 2022, published 2025).

Tests used:
Type in all cases: in vivo
Conditions in all cases: 250 g/ha, evaluated after 13 days, five-point scale
AMAPA [1] = test: Post-emergence herbicidal glasshouse test
Method: [Worded in the source for another organism; this organism is reported under the same test.] (§1) Seeds of a variety of test species are sown in standard soil in pots Amaranthus retoflexus (AMARE), Echinochloa crus-galli (ECHCG), Setaria faberi (SETFA)). After cultivation for one day (pre-emergence) or after 8 days cultivation (post-emergence) under controlled conditions in a glasshouse (at 24/16° C., day/night; 14 hours light; 65% humidity), the plants are sprayed with an aqueous spray solution derived from the formulation of the technical active ingredient in acetone/water (50:50) solution containing 0.5% Tween 20 (polyoxyethelyene sorbitan monolaurate, CAS RN 9005-64-5). Compounds are applied at 250 g/ha unless otherwise stated. The test plants are then grown in a glasshouse under controlled conditions in a glasshouse (at 24/16° C., day/night; 14 hours light; 65% humidity) and watered twice daily. After 13 days for pre and post-emergence, the test is evaluated for the percentage damage caused to the plant. The biological activities are shown in the following table on a five-point scale (5=81-100%; 4=61-80%; 3=41-60%; 2=21-40%; 1=0-20%).

[2] = system: Amaranthus retoflexus (AMARE); test: Post-emergence herbicidal glasshouse test
Method: as §1

[3] = system: Echinochloa crus-galli (ECHCG); test: Post-emergence herbicidal glasshouse test
Method: as §1

IPOHE [4] = test: Post-emergence herbicidal glasshouse test
Method: as §1

Setaria faberi (SETFA) [5] = test: Post-emergence herbicidal glasshouse test
Method: as §1

AMAPA [6] = test: Pre-emergence herbicidal glasshouse test
Method: [Worded in the source for another organism; this organism is reported under the same test.] as §1

[7] = system: Amaranthus retoflexus (AMARE); test: Pre-emergence herbicidal glasshouse test
Method: as §1

[8] = system: Echinochloa crus-galli (ECHCG); test: Pre-emergence herbicidal glasshouse test
Method: as §1

IPOHE [9] = test: Pre-emergence herbicidal glasshouse test
Method: as §1

Setaria faberi (SETFA) [10] = test: Pre-emergence herbicidal glasshouse test
Method: as §1

Row | SMILES | percentage damage caused to the plant, AMAPA (AMAPA [1]) | percentage damage caused to the plant, AMARE [2] | percentage damage caused to the plant, ECHCG [3] | percentage damage caused to the plant, IPOHE (IPOHE [4]) | percentage damage caused to the plant, SETFA (Setaria faberi (SETFA) [5]) | percentage damage caused to the plant, AMAPA (AMAPA [6]) | percentage damage caused to the plant, AMARE [7] | percentage damage caused to the plant, ECHCG [8] | percentage damage caused to the plant, IPOHE (IPOHE [9]) | percentage damage caused to the plant, SETFA (Setaria faberi (SETFA) [10])
1 | FC(F)(F)c1cn(Cc2ncc(Cl)cn2)c(-c2ccc(Cl)s2)n1 [Compound 1.001, 5-chloro-2-[[2-(5-chloro-2-thienyl)-4-(trifluoromethyl)imidazol-1-yl]methyl]pyrimidine] | 5 (5=81-100%) | 5 (5=81-100%) | 5 (5=81-100%) | 4 (4=61-80%) | 5 (5=81-100%) | 5 (5=81-100%) | 5 (5=81-100%) | 5 (5=81-100%) | 5 (5=81-100%) | 5 (5=81-100%)
2 | FC(F)(F)c1cn(Cc2ncc(Cl)cn2)c(-c2ccns2)n1 [Compound 1.033] | 5 (5=81-100%) | 5 (5=81-100%) | 5 (5=81-100%) | 4 (4=61-80%) | 5 (5=81-100%) | 5 (5=81-100%) | 5 (5=81-100%) | 5 (5=81-100%) | 5 (5=81-100%) | 5 (5=81-100%)
3 | FC(F)(F)c1cn(Cc2ncc(Cl)cn2)c(-n2cc(Cl)cn2)n1 [Compound 1.065, 5-chloro-2-[[2-(4-chloropyrazol-1-yl)-4-(trifluoromethyl)imidazol-1-yl]methyl]pyrimidine] | 4 (4=61-80%) | 4 (4=61-80%) | 2 (2=21-40%) | 3 (3=41-60%) | 2 (2=21-40%) | 5 (5=81-100%) | 5 (5=81-100%) | 1 (1=0-20%) | 4 (4=61-80%) | 2 (2=21-40%)
4 | FC(F)(F)c1cn(Cc2ncc(Cl)cn2)c(-c2ccc(Br)s2)n1 [Compound 1.069] | 5 (5=81-100%) | 5 (5=81-100%) | 5 (5=81-100%) | 4 (4=61-80%) | 5 (5=81-100%) | 5 (5=81-100%) | 5 (5=81-100%) | 5 (5=81-100%) | 5 (5=81-100%) | 5 (5=81-100%)
5 | FC(F)(F)c1cn(Cc2ncc(Cl)cn2)c(-c2cc(Cl)c(Cl)s2)n1 [Compound 1.070] | 5 (5=81-100%) | 5 (5=81-100%) | 5 (5=81-100%) | 4 (4=61-80%) | 5 (5=81-100%) | 5 (5=81-100%) | 5 (5=81-100%) | 5 (5=81-100%) | 3 (3=41-60%) | 5 (5=81-100%)
6 | Cc1csc(-c2nc(C(F)(F)F)cn2Cc2ncc(Cl)cn2)c1 [Compound 1.029] | 5 (5=81-100%) | 5 (5=81-100%) | 4 (4=61-80%) | 2 (2=21-40%) | 4 (4=61-80%) | 5 (5=81-100%) | 5 (5=81-100%) | 5 (5=81-100%) | 1 (1=0-20%) | 5 (5=81-100%)
7 | FC(F)(F)c1cn(Cc2ncc(Cl)cn2)c(-c2ccco2)n1 [Compound 1.016] | 1 (1=0-20%) | 1 (1=0-20%) | 1 (1=0-20%) | 1 (1=0-20%) | 1 (1=0-20%) | 1 (1=0-20%) | 1 (1=0-20%) | 1 (1=0-20%) | 1 (1=0-20%) | 1 (1=0-20%)
8 | Cn1ccnc1-c1nc(C(F)(F)F)cn1Cc1ncc(Cl)cn1 [Compound 1.006] | 1 (1=0-20%) | 1 (1=0-20%) | 1 (1=0-20%) | 1 (1=0-20%) | 1 (1=0-20%) | 1 (1=0-20%) | 1 (1=0-20%) | 1 (1=0-20%) | 1 (1=0-20%) | 1 (1=0-20%)
9 | Cn1cc(-c2nc(C(F)(F)F)cn2Cc2ncc(Cl)cn2)cn1 [Compound 1.014] | 3 (3=41-60%) | 3 (3=41-60%) | 2 (2=21-40%) | 3 (3=41-60%) | 2 (2=21-40%) | 5 (5=81-100%) | 4 (4=61-80%) | 4 (4=61-80%) | 5 (5=81-100%) | 4 (4=61-80%)
10 | Cc1ccc(-c2nc(C(F)F)cn2Cc2ncc(Cl)cn2)s1 [Compound 1.068] | 2 (2=21-40%) | 3 (3=41-60%) | 1 (1=0-20%) | 1 (1=0-20%) | 1 (1=0-20%) | 5 (5=81-100%) | 5 (5=81-100%) | 3 (3=41-60%) | 4 (4=61-80%) | 4 (4=61-80%)
11 | Cc1c(-c2nc(C(F)(F)F)cn2Cc2ncc(Cl)cn2)cnn1C [Compound 1.012, 5-chloro-2-[[2-(1,5-dimethylpyrazol-4-yl)-4-(trifluoromethyl)imidazol-1-yl]methyl]pyrimidine] | 3 (3=41-60%) | 2 (2=21-40%) | 1 (1=0-20%) | 3 (3=41-60%) | 1 (1=0-20%) | 5 (5=81-100%) | 3 (3=41-60%) | 1 (1=0-20%) | 5 (5=81-100%) | 1 (1=0-20%)
